In the test the test system is Tetrabenazine-Induced Ptosis. The experiment in a line: Blockade of Tetrabenazine-Induced Ptosis in Mice (anti-tetrabenazine test). The test is classed as in vivo, mice (ICR-DUB strain). The settings on record: for ED50: Mus musculus, ip, read-out: ED50 (95% Confidence Limits), blockade of tetrabenazine-induced ptosis. As to the method:
Antidepressant agents block many of the behavioral and physiological effects of tetrabenazine and reserpine, such as motor depression, hypothermia, and ptosis. […] Thirty minutes later the presence or absence of complete eyelid closure (ptosis) is assessed in each animal. For compounds which produced blockage of ptosis in all animals, and ED50 value is obtained using a minimum of three geometrically spaced doses with five mice/dose.

Setting [1] is: mice, IP, 30 minutes prior to tetrabenazine 32 mg/kg IP, ptosis assessed thirty minutes later, probit analysis, 95% confidence limits.

“And” between values parts separate entries of the source, which are not always exact repeats. Equal entries are not always repeated. Where two headings read alike, the source gives them in different places.

On to `CN(C)CCCN1c2ccccc2CCc2ccccc21` [imipramine], for which, under setting [1], the ED50 stood at 0.3 mg/kg; the “ED50 (95% Confidence Limits), blockade of tetrabenazine-induced ptosis” value is 0.4 (0.2-0.9) mg/kg IP and 0.5 (0.2-1.2) mg/kg IP.
As to `CCOc1ccccc1OCC1CNCCO1` (stereo not drawn) [viloxazine], the ED50 turned out to be 1.5 mg/kg.

As a reminder, the ED50 is the dose at which the effect has come halfway, by size or by number of responders.

The values above are taken from US4260606A, “3-Methyleneazetidine derivatives” (A. H. Robins Company, Inc., priority 1979, dated 1981).
